In assay [1] the target is T1, Indoleamine 2,3-dioxygenase 1 (Homo sapiens, UniProt P14902). Nature of the assay: Inhibition of human recombinant indoleamine 2,3-dioxygenase at =< 500000 nM.
Target sequence in this assay (P14902 whole entry, looked up): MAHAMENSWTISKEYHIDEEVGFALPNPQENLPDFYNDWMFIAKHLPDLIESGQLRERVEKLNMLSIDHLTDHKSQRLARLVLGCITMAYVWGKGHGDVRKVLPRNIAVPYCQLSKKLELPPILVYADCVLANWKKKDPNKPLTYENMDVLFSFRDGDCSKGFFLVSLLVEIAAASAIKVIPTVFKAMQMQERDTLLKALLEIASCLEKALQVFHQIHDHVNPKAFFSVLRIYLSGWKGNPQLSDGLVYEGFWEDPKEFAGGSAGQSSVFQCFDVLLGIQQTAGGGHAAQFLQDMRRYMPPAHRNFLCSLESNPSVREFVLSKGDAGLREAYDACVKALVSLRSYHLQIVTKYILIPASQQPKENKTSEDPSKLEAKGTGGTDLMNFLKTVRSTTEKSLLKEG
Assay [2] has as its target T1, Indoleamine 2,3-dioxygenase 1. Kind of assay: Inhibition of human recombinant indoleamine 2,3-dioxygenase.
Target sequence in this assay (P14902 whole entry): as the sequence (P14902 whole entry, looked up) above

Calls of active or inactive are those of the source. The calls are words filed in the database; no cut-off is given here.

On to `NCCc1c[nH]c2c1C(=O)c1c(c(-c3ccccc3)c3ccccc3c1-c1ccccc1)C2=O`, for which the outcome in assay [1] was inactive.

As for `Oc1cccc2[nH]ccc12`, the outcome in assay [1] was inactive.

One may read the Ki as the equilibrium dissociation constant of an inhibitor or competing ligand from its target. For `O=C1C=CC(=O)c2[nH]ccc21`, the inhibition constant Ki in assay [2] stood at 190 nM.

`O=C(NCCc1c[nH]c2c1C(=O)C=CC2=O)OCc1ccccc1`: the Ki in assay [2] worked out at 1490 nM.

The values above are taken from ChEMBL document CHEMBL1150237, “Synthesis of indoleamine 2,3-dioxygenase inhibitory analogues of the sponge alkaloid exiguamine A” (J Med Chem, 2008).
